Measured values as given in US20190070174A1, “METHODS OF TREATING NEURODEGENERATIVE DISEASES” (priority 2016, published 2019).

What was measured:
human mutant ATXN3Q84 = type: cell-based; conditions: sagittal brain slices treated for 48 hours, cerebellum and brainstem
Procedure: Nine slices per brain were used in each set of cultures. […] After 48 hours of incubation at 37° C./5% CO2, brain slices were assessed for ATXN3 levels by immunoblotting or immunofluorescence and for cell viability. For immunoblotting, each slice was macrodissected into separate cerebellum and brainstem that were immediately frozen at −80° C. in 80 μL and 150 μL of cold RIPA buffer containing protease inhibitors (Complete, Roche Diagnostics), respectively. Cell viability was assessed on treated slices by incubation in propidium iodide (PI) 1 μg/mL in culture medium for 1 hour. Slices were then mounted in PROLONG Gold Antifade Reagent (Invitrogen) and imaged using a FV500 Olympus confocal microscope.
Protein lysates from cell cultures, mouse brain slices or mouse brains were obtained by lysis in RIPA buffer containing protease inhibitors (Complete, Roche Diagnostics), followed by sonication and centrifugation. The supernatants (soluble protein fractions) were collected, total protein concentration was determined using the BCA method (Pierce) and then stored at −80° C. […] Pellets corresponding to insoluble protein fractions were resuspended in 100 μL of Laemmli buffer 2× and boiled for 10 min. Insoluble proteins were then quantified, and 100 μg were loaded in a filter trap assay apparatus and transferred to a nitrocellulose membrane (0.45 μm pore) that was incubated overnight with rabbit anti-MJD antibody (1:5000) at 4° C. Bound primary antibodies were visualized by incubation with a peroxidase-conjugated anti-mouse or anti-rabbit secondary antibody (1:10000; Jackson Immuno Research Laboratories) followed by treatment with the ECL-plus reagent (Western Lighting, PerkinElmer) and exposure to autoradiography films. Band intensity was quantified by densitometry using ImageJ.
To assess the efficacy of the five compounds to reduce ATXN3 levels in the mammalian brain, secondary screens in organotypic brain slice cultures derived from hemizygous YACMJD84.2 (Q84) transgenic mice were performed.

5HT2A transcripts = test: Subchronic treatment of Q84 mice, quantitative RT-PCR; type: in vivo, mouse; conditions: brainstem of Q84 mice
Procedure: YACMJD84.2 transgenic mice were housed in cages with a maximum number of five animals and maintained in a standard 12-hour light/dark cycle with food and water ad libitum. Genotyping was performed using DNA isolated from tail biopsy at the time of weaning, and genotypes of all studied mice were confirmed using DNA extracted from tails collected post-mortem. […] Five hours after the final injection, mice were anesthetized with ketamine/xylazine and perfused transcardially with phosphate buffered saline (PBS) (for RNA and protein studies), and brains were immediately placed on dry ice and stored at −80° C.
Reverse transcription of 1.5 μg of total RNA per sample was performed using the iScript cDNA synthesis kit (Bio-RAD). Human ATXN3 and mouse Atxn3, Drd2, 5HT1A, 5HT2A and Gapdh (housekeeping) transcript levels were accessed by quantitative real-time PCR. Relative gene expression was determined using the ΔΔCT method, normalizing for Gapdh mRNA levels.

ATXN3Q55 = test: Thioflavin T (ThT) fluorescence fibril formation assay; type: biochemical, human; conditions: ATXN3Q55 10 μM, compound 400 μM
Procedure: (§1) pGEX-6P1 plasmids encoding GST-ATXN3Q26 and GST-ATXN3Q55 were transformed in Rosetta (DE3) BL21 cells. Colonies grown overnight in LB/ampicillin/chloramphenicol plates at 37° C. were resuspended in 150 mL of the same selection medium and incubated at 37° C., 230 rpm for 2 hours. Bacterial cultures of 1 L of medium were prepared by inoculating 50 mL of the pre-culture and incubating at 37° C., 230 rpm until reaching an OD (600 nm) of 0.6 to 0.8. Expression of fusion proteins was then induced by adding 1 mM isopropyl-1-thio-D-galactopyranoside (IPTG) for 3 hours at 37° C. Cells were collected by centrifugation and stored at −20° C. […] Chromatography fractions were analyzed by SDS-PAGE, and the ones containing pure proteins were concentrated and protein concentration was determined in the Nanodrop (Thermo Scientific) by absorption at 280 nm.
(§2) Samples and blank control (only buffer) (110 μL) were dispensed in each well of a Black/Clear flat bottom 96-well plate (Corning), which was sealed and incubated at 37° C. with agitation in a FLUOstar Omega (BMG Labtech Inc) plate reader. Fluorescence of three replicates of each sample was measured every 10 min for up to 5 days. The […] wavelengths of the filter were 440 nm and 490 nm, respectively, and readings were taken using 90% gain adjustment. Values for protein solutions were normalized to readings of blank buffer.

ATXN3Q26 = test: as above; type: biochemical, human; conditions: ATXN3Q26 10 μM, compound 400 μM
Procedure: as §1, §2

## O=C1CCc2ccc(OCCCCN3CCN(c4cccc(Cl)c4Cl)CC3)cc2N1 [aripiprazole]
Human mutant ATXN3Q84
  levels of human mutant ATXN3Q84: reduced levels
5HT2A transcripts
  5HT2A transcripts: increasing
ATXN3Q55
  kinetics of ATXN3Q55 fibril formation in the presence or absence of compound: identical
ATXN3Q26
  fibril formation by normal ATXN3Q26: did not interfere with fibril formation
